PMC3706558 (Biochemistry, 2013)

Experiments:
Mtb ICDH-1 [1] = target: T1, Mtb ICDH-1 (Mycobacterium tuberculosis, UniProt P9WKL1); assay: biochemical
[2] = tested on: NC(=O)c1ccc[n+]([C@@H]2O[C@H](COP(=O)(O)OP(=O)(O)OC[C@H]3O[C@@H](n4cnc5c(N)ncnc54)[C@H](OP(=O)(O)O)[C@@H]3O)[C@@H](O)[C@H]2O)c1; assay: purified protein; details: pH 7.5
Mtb ICDH-1 [3] = target: T1, Mtb ICDH-1; assay: NADPH formation at […] nm, dead-end inhibition; format: biochemical

T1 sequence (P9WKL1 whole entry): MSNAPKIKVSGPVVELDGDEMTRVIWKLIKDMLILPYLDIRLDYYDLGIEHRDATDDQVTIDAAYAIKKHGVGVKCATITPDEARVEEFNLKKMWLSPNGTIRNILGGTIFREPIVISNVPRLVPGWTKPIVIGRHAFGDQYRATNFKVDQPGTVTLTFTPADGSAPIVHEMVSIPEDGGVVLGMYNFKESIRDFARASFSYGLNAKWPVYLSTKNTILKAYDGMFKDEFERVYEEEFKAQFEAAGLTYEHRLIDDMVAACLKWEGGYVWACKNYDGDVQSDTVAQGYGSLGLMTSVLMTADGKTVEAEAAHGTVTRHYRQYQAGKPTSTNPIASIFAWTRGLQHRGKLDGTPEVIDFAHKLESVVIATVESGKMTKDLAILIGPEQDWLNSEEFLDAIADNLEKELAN

| Compound | Ki (Mtb ICDH-1 [1]) | further results |
| --- | --- | --- |
| O=C(O)CCC(=O)C(=O)O [αKG] | 22 ± 6 mM |  |
| Mtb ICDH-1 (Mycobacterium tuberculosis H37Rv) |  | Km [2]: 15 ± 3 µM |
| O=C(O)C[C@H](O)C(=O)O [malate] |  | Ki (Mtb ICDH-1 [3]): 80 ± 15 mM |
| NC(=O)C1=CN([C@@H]2O[C@H](COP(=O)(O)OP(=O)(O)OC[C@H]3O[C@@H](n4cnc5c(N)ncnc54)[C@H](OP(=O)(O)O)[C@@H]3O)[C@@H](O)[C@H]2O)C=CC1 [NADPH] | 0.006 ± 0.002 mM |  |
